Reference: patent publication US20020052353A1, “Methods of prevention and treatment of ischemic damage” (priority 1999, published 2002)

Columns and labels:
[1] = tested on: ischemia induced by middle cerebral artery occlusion (MCAO); experiment: Pretreatment with estrogen compounds before middle cerebral artery occlusion (MCAO) in ovariectomized rats: mortality and ischemic area; assay type: in vivo, rat; conditions: for reduction of ischemic area: 5 mm Silastic tube 24 h prior to MCAO
[2] = tested on: ischemia induced by middle cerebral artery occlusion (MCAO); experiment: Post-treatment at 0.5, 1, 2, 3 and 4 hours after MCAO: ischemic lesion volume by TTC staining; assay type: in vivo, rat; conditions: iv 100 μg/kg HPCD-complexed 17β-estradiol plus Silastic pellet at 0.5, 1, 2 or 3 hours post-occlusion; 48 hours after MCAO
[3] = tested on: Primary rat brain capillary endothelial cells (BCEC); experiment: BCEC mortality under combined anoxia and hypoglycemia, Trypan blue; conditions: 2 nM; 100 mg % glucose; anoxia 2 hours
Protocol: Cell media contained 200 mg % or 100 mg % glucose. Culture dishes containing BCEC were placed in either an incubator or a nitrogen filled chamber for two hours. Trypan blue staining was used to distinguish live cells from dead cells. Two cell countings at two different hemacytometer squares were averaged. Mean ±SEM are depicted (n=8.12). *<0.05 vs. corresponding vehicle control.
(§1) Primary rat brain capillary endothelial cells (BCEC) cultures were prepared following the method of Goldstein, J. Neurochemistry vol.
Nitrogen gas was influxed to replace the oxygen inside the chamber. The chamber was sealed and placed in the incubator for four hours for nonhypoglycemic cultures and 2 hours for hypoglycemic cultures.
(§2) Cell mortality was counted using Trypan blue staining method. Cell death percentage was calculated as dead cell/alive cell ×100%.
(§3) Statistical treatment included two-way analysis of variance applied to determine the significance of the difference among the experimental groups. Kruskal-Wallis nonparametric analysis was used for data presented as percentage. […] P<0.05 was considered significant.

[4] = tested on: Primary rat brain capillary endothelial cells (BCEC); experiment: Brain capillary endothelial cell (BCEC) mortality under hypoglycemia, Trypan blue; conditions: 2 nM
Protocol: The control consists of the ethanol vehicle only. The glucose concentrations in the cell media were adjusted from 20 mg % to 200 mg % by adding appropriate amount of D-(+)-glucose to the glucose-free media. BCEC were incubated for 24 hours (a) and 48 hours (b). Trypan blue staining was used to distinguish live cells from dead cells. Two cell countings at two different hemacytometer squares were averaged. Mean±SEM are depicted (n=8-12). *p<0.05 vs. corresponding vehicle control.
as §1
Hypoglycemia experiments were undertaken. […] The glucose concentration of the culture media was then adjusted from 20 mg % to 200 mg % by adding appropriate amount of D-(+)-glucose to the glucose-free media and monitored by Glucose and L-Lactate Analyzer (YSI model 2300 STAT plus, YSI, Inc., Yellow Springs, Ohio). The hypoglycemic cultures were maintained for 24 hours or 48 hours prior to staining with Trypan blue.
as §2, §3

Compound	ischemic area, percent of cross-sectional area of brain sections ([1]; pretreatment 24 h prior to MCAO, 3 brain slices, sham 25.6±5.7%) [%]	protective effect in tissue slices (FIG. 2) ([1]; sc injection two hours prior to ischemic event, slices A-D)	protection, ischemic lesion volume (TTC staining) [2]	protection from cumulative effect of hypoglycemia and anoxia [3]	cell loss saved compared with control ([4]; media glucose 20 mg %) [%]	cell loss saved compared with control ([4]; media glucose 40 mg %) [%]	cell loss saved compared with control ([4]; media glucose 100 mg %) [%]	reduction of ischemic area ([1]; slice C) [%]	reduction of ischemic area ([1]; slice D) [%]	reduction of ischemic area ([1]; slice E) [%]	protective effect in tissue slices (FIG. 3) ([1]; sustained subcutaneous delivery initiated 24 hours prior to ischemic event, slices A-E)
C[C@]12CC[C@@H]3c4ccc(O)cc4CC[C@H]3[C@@H]1CC[C@@H]2O [17β-estradiol]	9.8±4.0	significant protective effect	significant protection	effective in protecting	23	28.4	35.9	–	–	–	–
C[C@]12CC[C@@H]3c4ccc(O)cc4CC[C@H]3[C@@H]1CC[C@H]2O [17α-estradiol]	–	–	–	–	–	–	–	55	66	81	significant protective effect
